Assay results reported in publication PMC12564449, “Multifaceted Biological Activity of Selected Flavone C-Monoglucosides” (International Journal of Molecular Sciences, 2025).
Where a name gives a salt, the structure may show the parent alone. Read-outs that look alike come from different tables or passages of the source. Marks after values point to notes of the source that are not given here.

Columns and labels:
[1] = test system: advanced glycation end-products (AGEs) formation in BSA/glucose model system; experiment: Inhibition of AGEs formation, BSA/glucose model system; type: biochemical, bovine; conditions: for IC50: read-out: IC50 against AGEs formation, BSA-Glucose System
Procedure: (§1) The inhibitory activity against AGEs formation was performed in the bovine serum albumin (BSA)/glucose and BSA/methylglyoxal (MGO) model systems as described recently by Zielińska et al.. Standards of OR, hOR, VT, iVT, and Q were initially dissolved in a small volume of DMSO and then in phosphate buffer (0.1 M, pH 7.4) to obtain 1 mM (DMSO/phosphate buffer; 1:5; v/v). The positive control aminoguanidine (1 mM AG) was used. The percentage (%) of inhibition was obtained from three repetitions (n = 3). The IC50, indicating the concentration of the compound at which formation of AGEs is inhibited by 50%, was determined through linear regression analysis.

[2] = Differential pulse voltammetry: anodic peak potentials and antioxidant activity; type: physicochemical; conditions: DPV; for Anodic Peak Potential Epa (mV) Epa1: glassy carbon electrode; for Antioxidant Activity (mM Trolox): area under anodic peaks, Trolox regression; for antioxidant activity lower in relation to the antioxidant activity of Q: relative to quercetin
Procedure: Electrochemical measurements were performed at room temperature (25 ± 2 °C) in a small-volume electrochemical cell using a potentiostat type SP-240 (BioLogic Science Instruments, Seyssinet-Pariset, France) controlled by EC-Lab V11.36 software. Differential pulse voltammograms were obtained with a pulse amplitude of 100 mV, a potential step of 5 mV, and a modulation time of 0.2 s. Four scans were registered for each sample, and the reported data correspond to the average of at least three replicates. The working electrode was a glassy carbon electrode, GCE (3 mm diameter, BASi M-2012, and the auxiliary and reference electrodes were platinum wire (BASi MW-1033) and Ag/AgCl (3 M KCl, BASi-MW-2052). All potentials are quoted against the used reference electrode. Before each scan, the surface of the glassy carbon electrode was polished on a polishing cloth with 0.05 μm alumina paste and ultrasonically rinsed in deionized water. After polishing, the electrode was washed with ultrapure water and dried with absorbent paper. DPV measurements were carried out in a standard solution of flavone C-monoglucosides and quercetin at a final concentration of 250 μM. Before measurements, the standard solutions were diluted in 0.2 M acetate-acetic buffer (in 80% methanol) at pH 5.0 (v/v: 1:1). Buffer solution also served as a supporting electrolyte. For the test purpose, from registered DPV voltammograms, the anodic oxidation potentials (Epa) in mV and the integrated area under anodic peaks in μA were determined.

[3] = target: T1, angiotensin-converting enzymes (ACE) from porcine kidneys (Sus scrofa, UniProt F1RRW5); experiment: Angiotensin-I-converting enzyme inhibitory activity (fluorometric); type: biochemical
T1 construct: angiotensin-converting enzymes (ACE) from porcine kidneys (EC 3.4.15.1); purchased Sigma (Sigma Chemical Company, Saint Louis, MO, USA); host or cells: porcine kidney
T1 sequence (F1RRW5 34-1309): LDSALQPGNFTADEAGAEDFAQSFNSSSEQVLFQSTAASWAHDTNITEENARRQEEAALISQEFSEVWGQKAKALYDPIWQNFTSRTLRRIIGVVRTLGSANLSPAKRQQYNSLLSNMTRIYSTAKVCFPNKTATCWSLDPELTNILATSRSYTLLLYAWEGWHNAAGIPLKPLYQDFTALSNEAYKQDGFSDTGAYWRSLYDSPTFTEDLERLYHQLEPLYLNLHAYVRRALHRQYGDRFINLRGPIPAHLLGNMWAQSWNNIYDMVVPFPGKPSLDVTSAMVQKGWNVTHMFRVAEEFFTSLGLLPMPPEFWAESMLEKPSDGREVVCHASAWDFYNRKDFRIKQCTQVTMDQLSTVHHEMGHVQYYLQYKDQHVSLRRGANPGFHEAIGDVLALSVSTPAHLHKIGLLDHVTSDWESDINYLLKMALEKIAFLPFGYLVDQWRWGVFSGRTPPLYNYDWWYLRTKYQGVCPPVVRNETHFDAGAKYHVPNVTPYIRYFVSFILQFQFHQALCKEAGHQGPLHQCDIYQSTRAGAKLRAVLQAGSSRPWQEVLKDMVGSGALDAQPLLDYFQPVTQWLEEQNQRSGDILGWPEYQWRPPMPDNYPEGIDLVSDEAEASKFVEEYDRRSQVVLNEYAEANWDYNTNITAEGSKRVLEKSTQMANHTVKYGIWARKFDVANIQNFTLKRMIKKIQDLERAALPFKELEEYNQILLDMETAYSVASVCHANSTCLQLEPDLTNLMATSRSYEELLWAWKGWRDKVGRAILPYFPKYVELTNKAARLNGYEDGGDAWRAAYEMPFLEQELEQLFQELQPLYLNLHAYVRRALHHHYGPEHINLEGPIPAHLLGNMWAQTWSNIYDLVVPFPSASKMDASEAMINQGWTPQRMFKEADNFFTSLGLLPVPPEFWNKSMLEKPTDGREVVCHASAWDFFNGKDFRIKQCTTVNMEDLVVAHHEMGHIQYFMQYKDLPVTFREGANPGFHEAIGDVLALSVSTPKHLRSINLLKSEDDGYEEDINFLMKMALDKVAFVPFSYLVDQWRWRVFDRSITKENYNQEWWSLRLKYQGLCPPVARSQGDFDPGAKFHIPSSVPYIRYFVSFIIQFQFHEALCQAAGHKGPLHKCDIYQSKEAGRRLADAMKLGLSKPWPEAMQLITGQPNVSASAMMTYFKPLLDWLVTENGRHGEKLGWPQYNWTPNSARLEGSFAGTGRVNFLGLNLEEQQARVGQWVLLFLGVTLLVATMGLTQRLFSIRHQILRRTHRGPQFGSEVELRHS
Procedure: Angiotensin converting enzyme (ACE) inhibitory activity was performed according to the method of Sentandreu and Toldra. The details of the procedure were described recently by Zielińska et al.. Standards of OR (luteolin-8-C-glucoside), hOR (luteolin-6-C-glucoside), VT (apigenin-8-C-glucoside), iVT (apigenin-6-C-glucoside), and Q (quercetin) were dissolved in 80% methanol. Each standard was diluted to various concentrations using deionized water. The multiscan microplate fluorometer (Tecan Infinite M1000 PRO, TK Biotech, Warsaw, Poland) was used, and the IC50 value indicating the sample concentration at which 50% inhibition of ACE activity was determined by using linear regression analysis of logarithmic plots. At least 3 replicates for each standard solution were conducted.

[4] = test system: advanced glycation end-products (AGEs) formation in BSA/methylglyoxal (MGO) model system; experiment: Inhibition of AGEs formation, BSA/MGO model system; type: biochemical, bovine; conditions: for IC50: read-out: IC50 against AGEs formation, BSA-MGO System; for anti-AGEs activity higher in relation to AG: relative to AG
Procedure: as §1

[5] = target: T2, acetylcholinesterase (AChE) (Homo sapiens, UniProt P22303); experiment: Acetylcholinesterase inhibitory activity; type: biochemical; conditions: for AChE inhibitory activity, times lower than that of galanthamine: relative to galanthamine
T2 construct: purchased Sigma Chemical Co. (Poznań, Poland)
T2 sequence (P22303 32-614, species assumed): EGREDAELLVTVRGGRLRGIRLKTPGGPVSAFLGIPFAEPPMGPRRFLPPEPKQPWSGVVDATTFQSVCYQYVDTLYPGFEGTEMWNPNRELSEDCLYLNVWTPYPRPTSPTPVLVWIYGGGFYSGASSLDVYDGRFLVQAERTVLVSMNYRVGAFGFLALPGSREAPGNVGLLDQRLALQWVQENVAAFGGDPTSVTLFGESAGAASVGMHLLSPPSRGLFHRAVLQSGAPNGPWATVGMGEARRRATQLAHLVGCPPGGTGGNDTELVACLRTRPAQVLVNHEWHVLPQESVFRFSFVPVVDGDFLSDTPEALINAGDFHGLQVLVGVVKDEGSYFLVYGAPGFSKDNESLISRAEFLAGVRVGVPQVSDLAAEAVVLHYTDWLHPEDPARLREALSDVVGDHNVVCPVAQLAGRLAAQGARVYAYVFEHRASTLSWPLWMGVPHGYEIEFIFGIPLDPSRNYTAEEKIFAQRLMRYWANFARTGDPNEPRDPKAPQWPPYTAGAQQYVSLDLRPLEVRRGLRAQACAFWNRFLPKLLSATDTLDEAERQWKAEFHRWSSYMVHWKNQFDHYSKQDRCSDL
Procedure: The AChE inhibitory activity was evaluated following the methodology adapted from Eldeen et al., and details of the procedure were provided recently by Zielińska et al.. […] All measurements were conducted using a microplate reader (Tecan Infinite M1000 PRO, TK Biotech, Warsaw, Poland). […] At least 3 replicates for each standard solution were carried out.

[6] = vs. NHE; cited from earlier work
[7] = 0.25 mM standard solutions, acetate-acetic buffer pH 5.0 in 80% methanol, vs. Ag/AgCl
[8] = ACE from porcine kidneys, linear regression, read-out: IC50 for ACE inhibition

Row | Compound | IC50 [1] [µM] | Anodic Peak Potential Epa (mV) Epa1 [2, 7] | Antioxidant Activity (mM Trolox) [2] | IC50 [3, 8] [µM] | IC50 [4] [µM] | IC50 [5] [µM] | Anodic Peak Potential Epa (mV) Epa2 [2, 7] | anti-AGEs activity higher in relation to AG [4] [%] | other results
1 | O=c1cc(-c2ccc(O)cc2)oc2cc(O)c([C@@H]3O[C@H](CO)[C@@H](O)[C@H](O)[C@H]3O)c(O)c12 [Isovitexin (iVT), 4′,5,7-trihydroxyflavone-6-glucoside] | 214 ± 11 | 926 ± 8 ^a mV | 1.06 ± 0.07 ^c mM Trolox | 161 ± 3.27 | 341 ± 20 | 1.08 ± 0.011 | – | – | Anodic Peak Potential Epa (mV) Epa1 ([2]; 0.25 mM standard solutions, acetate-acetic buffer pH 5.0 in 80% methanol, vs. Ag/AgCl, listed as iVT): 926 mV
2 | N=C(N)NN [Aminoquanidine (AG), aminoguanidine hydrochloride, reference compound] | 432 ± 36 | – | – | – | 531 ± 28 | – | – | – | –
3 | O=c1cc(-c2ccc(O)c(O)c2)oc2cc(O)c([C@@H]3O[C@H](CO)[C@@H](O)[C@H](O)[C@H]3O)c(O)c12 [Homoorientin (hOR), 3′,4′,5,7-tetrahydroxyflavone-6-glucoside] | 14 ± 8 | 336 ± 5 ^b mV | 3.24 ± 0.15 ^b mM Trolox | 114 ± 1.23 | 391 ± 22 | 0.581 ± 0.096 | 960 ± 9 ^b mV | 26 | anti-AGEs activity times higher in relation to Q ([1]; relative to Q): ~17 times; anti-AGEs activity times higher in relation to VT ([1]; relative to VT): about 18 times; anti-AGEs activity times higher in relation to iVT ([1]; relative to iVT): ~15 times; Anodic Peak Potential Epa (mV) Epa1 ([2]; 0.25 mM standard solutions, acetate-acetic buffer pH 5.0 in 80% methanol, vs. Ag/AgCl, listed as hOR): 336 mV; antioxidant activity lower in relation to the antioxidant activity of Q [2]: 15%; AChE inhibitory activity, times lower than that of galanthamine [5]: 14–20 times
4 | O=c1cc(-c2ccc(O)cc2)oc2c([C@@H]3O[C@H](CO)[C@@H](O)[C@H](O)[C@H]3O)c(O)cc(O)c12 [Vitexin (VT), 4′,5,7-trihydroxyflavone-8-glucoside] | 255 ± 16 | 925 ± 8 ^a mV | 0.93 ± 0.07 ^c mM Trolox | 135 ± 2.45 | 437 ± 17 | 1.28 ± 0.089 | – | 18 | Anodic Peak Potential Epa (mV) Epa1 ([2]; 0.25 mM standard solutions, acetate-acetic buffer pH 5.0 in 80% methanol, vs. Ag/AgCl, listed as VT): 925 mV; ACE inhibitory activity higher in comparison to iVT ([3]; relative to iVT): 19.6%
5 | O=c1cc(-c2ccc(O)c(O)c2)oc2c([C@@H]3O[C@H](CO)[C@@H](O)[C@H](O)[C@H]3O)c(O)cc(O)c12 [Orientin (OR), 3′,4′,5,7-tetrahydroxyflavone-8-glucoside] | 73 ± 5 | 345 ± 6 ^b mV | 3.00 ± 0.14 ^b mM Trolox | – | 326 ± 19 | – | 1020 ± 9 ^a mV | 39 | Anodic Peak Potential Epa (mV) Epa1 ([2]; 0.25 mM standard solutions, acetate-acetic buffer pH 5.0 in 80% methanol, vs. Ag/AgCl, listed as OR): 345 mV; antioxidant activity lower in relation to the antioxidant activity of Q [2]: 21%; IC50 [3]: 122 ± 2.66 µM; ACE inhibitory activity lower as compared to hOR ([3]; relative to hOR): 6.9%; IC50 ([5]; linear regression, read-out: IC50 for AChE inhibition): 0.868 ± 0.088 µM; AChE inhibitory activity, times lower than that of galanthamine [5]: 14–20 times
6 | O=c1c(O)c(-c2ccc(O)c(O)c2)oc2cc(O)cc(O)c12 [Quercetin (Q), 3,3′,4′,5,7-pentahydroxyflavone, reference compound] | 243 ± 12 | 255 ± 7 ^c mV | 3.81 ± 0.19 ^a mM Trolox | – | 466 ± 17 | 1.37 ± 0.077 | 510 ± 8 ^c mV | 12 | Anodic Peak Potential Epa (mV) Epa1 ([2]; 0.25 mM standard solutions, acetate-acetic buffer pH 5.0 in 80% methanol, vs. Ag/AgCl, listed as Q): 255 mV; Anodic Peak Potential Epa (mV) Epa3 [2, 7]: 1060 ± 10 mV
7 | N[C@@H](CCC(=O)N[C@@H](CS)C(=O)NCC(=O)O)C(=O)O [Glutathione (GSH), Glutathione] | – | – | – | – | – | – | – | – | standard redox potential [6]: around −0.23 V
